Source: publication PMC7462607 (eLife, 2020)
Several values for one entry are separate records, joined by “and”; a condition that tells them apart may be missing. Equal entries are not always repeated. Where two headings read alike, the source gives them in different places.

Columns and labels:
[1] = system: CDK12KD/CCNKΔC (WT or G731E/R); test: Nano DSF; format: binding, human; settings: increasing concentrations of HQ461
Method: CDK12KD/CCNKΔC (WT or G731E/R) or DDB1ΔBPB were diluted with DSF assay buffer (50 mM HEPES pH 7.5, 300 mM NaCl, 0.5 mM TCEP) to 3.6 µM and mixed with diluted HQ461 (final DMSO concentration 2%). Tryptophan fluorescence was measured using Tycho NT.6 (NanoTemper, South San Francisco, USA). During the thermal shift experiment, temperature was increased from 35°C to 95°C and fluorescence was scanned at 350 nm and 330 nm. Ti (inflection temperature of the unfolding transition) was calculated from the 350 nm/330 nm ratio.

[2] = system: A549 cells expressing sgRNAs (NTC, DDB1, RBX1, UBE2G1); test: Cell viability assay, A549 cells expressing non-targeting control or sgRNAs targeting DDB1, RBX1 or UBE2G1; format: cell-based, Homo sapiens; settings: for CellTiter-Glo (ATP): raw signal; for IC50: Homo sapiens
Method: Seven hundred A549 cells or 1,000 HCT-116 cells in 50 µL of medium were plated per well in 384-well flat clear bottom white polystyrene TC-treated microplates (Corning, Corning, USA). After overnight attachment, cells were dosed with a serial dilution of HQ461 with a D300e digital dispenser (Tecan, Männedorf, Switzerland). Cell survival was measured 72 hr later using CellTiter-Glo luminescent cell viability assay kit (Promega, Madison, USA) following vendor instructions. Luminescence was recorded by EnVison multimode plate reader (PerkinElmer, Waltham, USA). IC50 was determined with GraphPad Prism using baseline correction (by normalizing to DMSO control), the asymmetric (five parameter) equation, and least squares fit.
Two sgRNAs per gene were chosen from the Brunello library for DDB1 (5’-[…]-3’ and 5’-[…]-3’), RBX1 (5’- […]-3’ and 5’-[…]-3’), and UBE2G1 (5’-[…]-3’ and 5’- […]-3’). Annealed sgRNA oligos were cloned into the lentiCRISPR v2 vector. Lentiviral packaging was performed by co-transfecting the resulting plasmids with psPAX2 (Addgene 12260) and pMD2.G (Addgene 12259) into 293 T cells. Media collected from transfected 293 T cells was used to infect A549 cells at MOI ~ 5 for 4 days. The resulting cells were tested for their sensitivity to HQ461 using methods describe in the previous session cell viability assay.

[3] = system: ARE-luc2P activity (NRF2); test: ARE-luc2P reporter assay (NRF2 activity); format: cell-based; settings: Homo sapiens; A549 ARE-luc2P reporter cells
Method: A549 cells were transiently transfected with the plasmid pGL4.37 (Promega, Madison, USA) and selected with 500 µg/ml of hygromycin to obtain a stable cell line harboring the ARE-luc2P reporter. TK-luc2P was cloned into the pLVX-IRE-Puro backbone by replacing its CMV promoter and multiple cloning site with HSV-TK promoter fused to luc2P. The resulting pLVX-TK-luc2P-IRES-Puro plasmid was packaged into lentivirus to transduce A549 cells. Stable cell lines were obtained by selection of transduced cells with 2 µg/ml of puromycin.
A screening library with 65,790 small molecules (Life Chemicals, Niagara-on-the-Lake, Canada) were used in primary screening. The screening procedures were as follows. Seven hundred A549 ARE-luc2P cells in 50 µL of medium were plated per well in 384-well flat clear bottom white polystyrene TC-treated microplates (Corning, Corning, USA) and allowed to attach to plates overnight. […] Twelve hours later, ARE-luc2P activities were measured with Bright-Glo luciferase assay system (Promega, Madison, USA) following vendor instructions. Luminescence was measured on a EnVision multimode plate reader (PerkinElmer, Waltham, USA). Luminescence data on each plate was Z-score normalized using the equation Z=x−μ/σ , where x is the luminescence value of a well, µ is the mean and σ is the standard deviation of all values on one plate. […]

[4] = biological target: T1, CDK13 kinase domain/CCNK-3xHA (Homo sapiens, UniProt Q14004); test: Co-expression of 3xFLAG-CDK13 kinase domain with CCNK-3xHA; format: cell-based; settings: 293T, HQ461 8 hr; not with G709E or G709R
T1 construct: ORFs encoding residues 715–1052 of CDK12 and residues 693–1030 of CDK13; expressed in transfected cells; host or cells: 293T
Method: ORFs encoding residues 715–1052 of CDK12 and residues 693–1030 of CDK13 were cloned into a pCDNA3.1-N-3xFLAG vector. For setting up cells for co-transfection, 0.6 million 293 T cells were seeded per well in 6-well tissue-culture plates and allowed to attach to plates overnight. These cells were then transfected with 50 ng of pCDNA3.1-3xFLAG-CDK12/13 kinase domain, 50 ng of pCDNA3.1-CCNK-3xHA, and 400 ng of the empty pCDNA3.1 vector. Twenty-four hours post transfection, cells were treated with HQ461 for 8 hr, and lysates were collected for western blotting with anti-FLAG and anti-HA antibodies.

T1 sequence (O75909 whole entry, the tested form may be a part): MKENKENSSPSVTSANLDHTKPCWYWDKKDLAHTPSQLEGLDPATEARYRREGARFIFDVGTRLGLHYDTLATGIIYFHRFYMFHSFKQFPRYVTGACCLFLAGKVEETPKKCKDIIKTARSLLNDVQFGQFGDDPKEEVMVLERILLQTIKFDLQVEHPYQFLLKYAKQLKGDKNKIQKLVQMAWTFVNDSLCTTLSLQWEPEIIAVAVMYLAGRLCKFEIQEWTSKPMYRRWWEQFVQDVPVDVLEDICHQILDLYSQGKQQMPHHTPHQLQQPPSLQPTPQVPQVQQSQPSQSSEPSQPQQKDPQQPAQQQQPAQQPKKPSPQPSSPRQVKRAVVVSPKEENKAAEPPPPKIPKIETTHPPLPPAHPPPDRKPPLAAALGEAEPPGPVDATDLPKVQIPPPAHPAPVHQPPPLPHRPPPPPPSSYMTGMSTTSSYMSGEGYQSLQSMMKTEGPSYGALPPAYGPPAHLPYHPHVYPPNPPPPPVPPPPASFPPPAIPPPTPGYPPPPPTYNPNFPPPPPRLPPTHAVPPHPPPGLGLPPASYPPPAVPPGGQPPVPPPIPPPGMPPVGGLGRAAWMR
T1 sequence (Q14004 693-1030): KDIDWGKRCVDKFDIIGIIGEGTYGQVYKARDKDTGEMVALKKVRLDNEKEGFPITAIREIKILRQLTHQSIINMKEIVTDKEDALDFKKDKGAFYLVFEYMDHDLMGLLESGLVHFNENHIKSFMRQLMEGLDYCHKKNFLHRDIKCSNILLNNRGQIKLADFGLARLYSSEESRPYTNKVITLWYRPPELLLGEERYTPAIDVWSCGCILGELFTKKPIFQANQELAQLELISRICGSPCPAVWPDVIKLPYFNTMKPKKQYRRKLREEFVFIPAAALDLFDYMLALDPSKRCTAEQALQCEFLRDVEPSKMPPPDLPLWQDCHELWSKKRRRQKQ
T1 sequence (Q16531 2-1140, further chain): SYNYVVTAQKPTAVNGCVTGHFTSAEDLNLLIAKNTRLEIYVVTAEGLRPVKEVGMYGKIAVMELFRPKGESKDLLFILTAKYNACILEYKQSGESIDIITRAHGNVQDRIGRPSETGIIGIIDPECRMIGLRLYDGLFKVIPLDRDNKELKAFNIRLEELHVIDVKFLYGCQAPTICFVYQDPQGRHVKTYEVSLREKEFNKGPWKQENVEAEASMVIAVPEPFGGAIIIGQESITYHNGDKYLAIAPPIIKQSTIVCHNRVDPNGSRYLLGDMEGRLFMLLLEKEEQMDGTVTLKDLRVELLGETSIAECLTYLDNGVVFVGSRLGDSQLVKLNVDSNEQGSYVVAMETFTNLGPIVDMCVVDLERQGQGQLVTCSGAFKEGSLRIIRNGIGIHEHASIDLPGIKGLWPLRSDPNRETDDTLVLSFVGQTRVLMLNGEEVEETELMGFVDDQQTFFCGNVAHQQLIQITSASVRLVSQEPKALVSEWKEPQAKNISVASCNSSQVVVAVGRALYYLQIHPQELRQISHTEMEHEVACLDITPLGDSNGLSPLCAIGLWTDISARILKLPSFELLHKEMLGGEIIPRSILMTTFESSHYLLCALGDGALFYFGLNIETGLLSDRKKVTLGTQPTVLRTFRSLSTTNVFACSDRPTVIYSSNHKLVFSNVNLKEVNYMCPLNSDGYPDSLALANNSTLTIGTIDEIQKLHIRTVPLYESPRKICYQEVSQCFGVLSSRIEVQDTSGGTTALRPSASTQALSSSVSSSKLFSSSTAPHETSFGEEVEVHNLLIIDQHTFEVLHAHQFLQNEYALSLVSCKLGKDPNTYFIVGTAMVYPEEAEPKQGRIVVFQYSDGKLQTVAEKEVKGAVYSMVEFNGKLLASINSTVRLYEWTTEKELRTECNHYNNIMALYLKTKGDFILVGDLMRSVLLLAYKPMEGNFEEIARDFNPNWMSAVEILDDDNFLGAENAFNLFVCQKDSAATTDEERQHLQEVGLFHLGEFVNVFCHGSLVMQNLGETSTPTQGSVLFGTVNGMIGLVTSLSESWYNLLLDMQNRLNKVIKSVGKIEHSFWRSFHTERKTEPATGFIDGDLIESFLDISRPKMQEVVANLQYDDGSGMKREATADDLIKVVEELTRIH

With `Cc1cccc(Nc2nc(CC(=O)Nc3ncc(C)s3)cs2)n1` [HQ461, 2-(2-((6-methylpyridin-2-yl)amino)thiazol-4-yl)-N-(5-methylthiazol-2-yl)acetamide] the “Tm of CDK12KD/CCNKΔC wild type or G731E/R mutants” value [1] was “increased in an HQ461 concentration-dependent manner”, the “CellTiter-Glo (ATP)” value ([2]; A549 sgDDB1-1, HQ461 1.04e-6 M) was 266440 and 262730 and 269540 and the “CellTiter-Glo (ATP)” value ([2]; A549 sgDDB1-1, HQ461 1.84e-6 M) was 260200 and 241370 and 247600. The “CellTiter-Glo (ATP)” value ([2]; A549 sgDDB1-1, HQ461 5e-5 M) was 103060 and 118120 and 131920, the “CellTiter-Glo (ATP)” value ([2]; A549 sgDDB1-1, HQ461 1.16E-07 M) was 267930 and 251180 and 224010 and the “CellTiter-Glo (ATP)” value ([2]; A549 sgDDB1-1, HQ461 2.04E-07 M) was 317680 and 266950 and 274210. For the same molecule, the “CellTiter-Glo (ATP)” value ([2]; A549 sgDDB1-1, HQ461 3.52E-07 M) was 250370 and 237750 and 246820, the “CellTiter-Glo (ATP)” value ([2]; A549 sgDDB1-1, HQ461 6.08E-07 M) was 264740 and 257780 and 224550 and the “CellTiter-Glo (ATP)” value ([2]; A549 sgDDB1-1, HQ461 6.80E-08 M) was 250520 and 230710 and 232990. The “CellTiter-Glo (ATP)” value ([2]; A549 sgNTC, HQ461 1.04e-6 M) was 250120 and 267660 and 292550, the “CellTiter-Glo (ATP)” value ([2]; A549 sgNTC, HQ461 1.84e-6 M) was 177290 and 247760 and 214770 and the “CellTiter-Glo (ATP)” value ([2]; A549 sgNTC, HQ461 2.88e-5 M) was 34040. For the same molecule, the “CellTiter-Glo (ATP)” value ([2]; A549 sgNTC, HQ461 5e-5 M) was 18410 and 24360 and 23900, the “CellTiter-Glo (ATP)” value ([2]; A549 sgNTC, HQ461 1.16E-07 M) was 358110 and 293700 and 340660 and the “CellTiter-Glo (ATP)” value ([2]; A549 sgNTC, HQ461 2.04E-07 M) was 291450 and 300990 and 265430. The “CellTiter-Glo (ATP)” value ([2]; A549 sgNTC, HQ461 3.52E-07 M) was 289350 and 289810 and 317840, the “CellTiter-Glo (ATP)” value ([2]; A549 sgNTC, HQ461 6.08E-07 M) was 260230 and 280040 and 269860 and the “CellTiter-Glo (ATP)” value ([2]; A549 sgNTC, HQ461 6.80E-08 M) was 322880 and 295000 and 291440. The “CellTiter-Glo (ATP)” value ([2]; A549 sgRBX1-1, HQ461 1.04e-6 M) was 306380 and 286480 and 313050, the “CellTiter-Glo (ATP)” value ([2]; A549 sgRBX1-1, HQ461 1.84e-6 M) was 225540 and 237470 and 230500 and the “CellTiter-Glo (ATP)” value ([2]; A549 sgRBX1-1, HQ461 5e-5 M) was 43060 and 31790 and 35930. The “CellTiter-Glo (ATP)” value ([2]; A549 sgRBX1-1, HQ461 1.16E-07 M) was 288560 and 290760 and 286800, the “CellTiter-Glo (ATP)” value ([2]; A549 sgRBX1-1, HQ461 2.04E-07 M) was 262410 and 264720 and 241220 and the “CellTiter-Glo (ATP)” value ([2]; A549 sgRBX1-1, HQ461 3.52E-07 M) was 292190 and 292940 and 303380. For the same molecule, the “CellTiter-Glo (ATP)” value ([2]; A549 sgRBX1-1, HQ461 6.08E-07 M) was 295780 and 267950 and 240730, the “CellTiter-Glo (ATP)” value ([2]; A549 sgRBX1-1, HQ461 6.80E-08 M) was 297310 and 267380 and 272530 and the “CellTiter-Glo (ATP)” value ([2]; A549 sgUBE2G1-1, HQ461 1.04e-6 M) was 312980 and 335750 and 320370. The “CellTiter-Glo (ATP)” value ([2]; A549 sgUBE2G1-1, HQ461 1.84e-6 M) was 297250 and 326340 and 338010, the “CellTiter-Glo (ATP)” value ([2]; A549 sgUBE2G1-1, HQ461 2.88e-5 M) was 51820 and 43500 and 48750 and the “CellTiter-Glo (ATP)” value ([2]; A549 sgUBE2G1-1, HQ461 5e-5 M) was 35610 and 27850 and 21460. For the same molecule, the “CellTiter-Glo (ATP)” value ([2]; A549 sgUBE2G1-1, HQ461 1.16E-07 M) was 299870 and 310810 and 340290, the “CellTiter-Glo (ATP)” value ([2]; A549 sgUBE2G1-1, HQ461 2.04E-07 M) was 303360 and 350750 and 286460 and the “CellTiter-Glo (ATP)” value ([2]; A549 sgUBE2G1-1, HQ461 3.52E-07 M) was 341410 and 309550 and 308880. For the same molecule, the “CellTiter-Glo (ATP)” value ([2]; A549 sgUBE2G1-1, HQ461 6.08E-07 M) was 297850 and 310080 and 327760, the “CellTiter-Glo (ATP)” value ([2]; A549 sgUBE2G1-1, HQ461 6.80E-08 M) was 296160 and 325630 and 360740 and the IC50 ([2]; A549, independent second sgRNA, Figure 1-figure supplement 2D, read-out: IC50 on the viability of A549 cells expressing sgRNA targeting DDB1) was greater than 28.8 µM. For the same molecule, the IC50 ([2]; A549, independent second sgRNA, Figure 1-figure supplement 2D, read-out: IC50 on the viability of A549 cells expressing sgRNA targeting RBX1) was 11 µM, the IC50 ([2]; A549, independent second sgRNA, Figure 1-figure supplement 2D, read-out: IC50 on the viability of A549 cells expressing sgRNA targeting UBE2G1) was 13.6 µM and the IC50 ([2]; A549, sgDDB1, Figure 1D, read-out: IC50 on the viability of A549 cells expressing sgRNA targeting DDB1) was greater than 28.8 µM. For the same molecule, the IC50 ([2]; A549, sgNTC, Figure 1D, read-out: IC50 on the viability of A549 cells expressing non-targeting control (NTC)) was 2.3 µM, the IC50 ([2]; A549, sgRBX1, Figure 1D, read-out: IC50 on the viability of A549 cells expressing sgRNA targeting RBX1) was 10.9 µM and the IC50 ([2]; A549, sgUBE2G1, Figure 1D, read-out: IC50 on the viability of A549 cells expressing sgRNA targeting UBE2G1) was 11.9 µM. For the same molecule, the IC50 [3] was 3.6 µM and the “CCNK degradation with co-expressed wild-type CDK13 kinase domain” value [4] was “sufficient for mediating HQ461-dependent degradation of CCNK”.
